Holding throughout (format): in vivo
For assay [1], the system named is Septoria tritici, KUK-1-21 Strain. Briefly: Test for wheat leaf blotch, potted wheat, foliar spray before inoculation. The source says: Test for Wheat Leaf Blotch (Septoria tritici, KUK-1-21 Strain):
The formulation produced in Formulation Example 1 was adjusted to predetermined concentrations and these prepared agrochemical liquids were applied to wheat plants in pots at a rate equivalent to 1000 L/ha with a spray gun. After the agrochemical treatment, the wheat pots were kept outdoors for 1 day or 7 days, and then spray-inoculated with wheat leaf blotch pathogen Septoria tritici (1×10^6 spores/mL). After that, the wheat pots were kept in a greenhouse, in which the conditions favored the development of the disease. Three weeks after the inoculation, the lesion area index (0-10) was determined for the evaluation of the control effect.

The subject of assay [2] is Pseudocercosporella herpotrichoides. The assay is described as follows: Test for wheat eyespot, potted wheat, foliar spray before inoculation. The conditions noted are these: wheat in pots, percentage of stems with lesions three weeks after inoculation. The source says:
Test for Wheat Eyespot (Pseudocercosporella herpotrichoides)
The formulation produced in Formulation Example 1 was adjusted to predetermined concentrations and these prepared agrochemical liquids were applied to wheat plants in pots at a predetermined rate with a spray gun. After air-drying, the wheat pots were spray-inoculated with a spore suspension of wheat eyespot pathogen Pseudocercosporella herpotrichoides (4.2×10^6 spores/mL). After that, the wheat pots were kept in a greenhouse, in which the conditions favored the development of the disease. Three weeks after the inoculation, the percentage of stems with lesions was determined for the evaluation of the control effect.

Another assay deals with Septoria nodorum. Briefly: Test for wheat glume blotch, potted wheat, foliar spray before inoculation. The conditions noted are these: wheat in pots, 1000 L/ha spray, number of lesions per leaf ten days after inoculation. From the text: Test for Wheat Glume Blotch (Septoria nodorum)
The formulation produced in Formulation Example 1 was adjusted to predetermined concentrations and these prepared agrochemical liquids were applied to wheat plants in pots at a rate equivalent to 1000 L/ha with a spray gun. After the agrochemical treatment, the wheat pots were kept outdoors for 1 day or 7 days, and then spray-inoculated with wheat leaf blotch pathogen Septoria nodorum (2.4×10^6 spores/mL). After that, the wheat pots were kept in a greenhouse, in which the conditions favored the development of the disease.
Ten days after the inoculation, the number of lesions per leaf was counted for the evaluation of the control effect.

The values that follow come from patent US20170027171A1, “METHOD FOR CONTROLLING PLANT DISEASES” (Nihon Nohyaku Co., Ltd., priority 2014, published 2017).

As for `O=C1C(Cl)=C(Cl)C(=O)N1c1ccc(F)cc1` [Fluoroimide], the “Control rate, Inoculated at 1 day post-treatment” value turned out to be 62 in assay [1] (62.5 ppm, wheat in pots, 1000 L/ha spray, lesion area index three weeks after inoculation); 84 in assay [1] (125 ppm, wheat in pots, 1000 L/ha spray, lesion area index three weeks after inoculation); 95 in assay [1] (250 ppm, wheat in pots, 1000 L/ha spray, lesion area index three weeks after inoculation); 63 in the assay on Septoria nodorum (62.5 ppm); 90 with Septoria nodorum (125 ppm); 94 in the assay with Septoria nodorum (250 ppm). Moreover, the “Control rate, Inoculated at 1 day post-treatment” value in the assay with Septoria nodorum (500 ppm) is given as 96. For the same compound, the “Control rate, Inoculated at 7 days post-treatment” value in assay [1] (500 ppm, wheat in pots, 1000 L/ha spray, lesion area index three weeks after inoculation) stood at 65; with Septoria nodorum (500 ppm) it was 85. Also, the “Effect for controlling leaf blotch (in words)” value in assay [1] (summary of the results) is “highly effective”. The “Control rate, Inoculated after treatment and air-drying” value is recorded as 56 in assay [2] (125 ppm), 80 in assay [2] (250 ppm) and 95 in assay [2] (500 ppm).
